The source of these data is ChEMBL document CHEMBL1201862, “PubChem BioAssay data set” (2004).

Some test systems named below: HCT-15; SNB-19; DU-145; NCI-H226; SK-MEL-5; SK-OV-3; OVCAR-4; OVCAR-8; HOP-92; NCI/ADR-RES; IGROV-1; TK-10; UO-31; HT-29; BT-549; NCI-H23; 786-0; HOP-62; ACHN.
Common to all, as to test: NCI tumour cell line growth inhibition, 48 h

SMILES strings stand for the structures.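 1) Cells in 96-well plates. 2) Compound, 48 h, 5 concentrations. 3) Linear interpolation between surrounding doses. 4) Unreached endpoint = highest concentration. GI50: concentration for 50% inhibition of growth.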 Active and inactive are the calls of the source. No stated cut-off is given here; in the data, active = GI50 up to about 1.1 µM and inactive = higher. Some results are limits rather than exact numbers.

Consider `COc1ccccc1Cn1c2c(c3c(C(=O)NCCN(C)C)c(O)ccc31)C(=O)c1ccccc1C2=O`, for which the GI50 in the experiment with HCT-15 is 1.94 µM; with SNB-19 it was 2.03 µM (inactive); in the experiment with DU-145, 1.81 µM (inactive); in the experiment with NCI-H226, 10.4 µM (inactive); with SK-MEL-5, 1.74 µM (inactive); in the experiment with SK-OV-3, 6.52 µM (inactive). The GI50 with OVCAR-4 is 1.65 µM (inactive); with OVCAR-8, 2.14 µM (inactive); in the experiment with HOP-92, 1.17 µM (inactive); in the experiment on NCI/ADR-RES, 2.02 µM (inactive); with IGROV-1, 1.68 µM (inactive); in the experiment on TK-10, 1.61 µM (inactive). Moreover, the GI50 was 1.75 µM (inactive) in the experiment on UO-31; 1.92 µM (inactive) with HT-29; 7.13 µM (inactive) in the experiment on BT-549; 1.83 µM (inactive) in the experiment on NCI-H23; 0.409 µM (active) in the experiment with 786-0; 1.92 µM (inactive) in the experiment on HOP-62. Besides, in the experiment on ACHN, the GI50 is 1.64 µM (inactive).
As to `C(=N/c1ccccc1C1SCCCS1)/c1ccccc1`, the GI50 is above 100 µM in the experiment with HCT-15; > 100 µM (inactive) in the experiment with SNB-19; > 100 µM (inactive) in the experiment with DU-145; > 100 µM (inactive) in the experiment on NCI-H226; > 100 µM (inactive) in the experiment with SK-MEL-5; > 100 µM (inactive) in the experiment with SK-OV-3. For the same compound, the GI50 in the experiment with OVCAR-4, in the experiment on OVCAR-8, with HOP-92, in the experiment with NCI/ADR-RES, in the experiment with IGROV-1 and with TK-10 was > 100 µM (inactive) each time. Besides, the GI50 in the experiment on UO-31, with HT-29, in the experiment with BT-549, in the experiment on NCI-H23, with 786-0 and with HOP-62 was > 100 µM (inactive) in each case. The GI50 in the experiment with ACHN was > 100 µM (inactive).
In the case of `CC(C)(C)OC(=O)NCC(c1c[nH]c2cc(Br)ccc12)c1c[nH]c2cc(Br)ccc12`, the GI50 was 15.1 µM in the experiment on HCT-15; 21.8 µM (inactive) in the experiment on SNB-19; 17.7 µM (inactive) with DU-145; 15.4 µM (inactive) with NCI-H226; 17.3 µM (inactive) in the experiment with SK-MEL-5; 15.8 µM (inactive) with SK-OV-3. For the same compound, the GI50 in the experiment with OVCAR-4 is 16.7 µM (inactive); in the experiment on OVCAR-8, 18.3 µM (inactive); in the experiment on HOP-92 it was 14.9 µM (inactive); in the experiment on NCI/ADR-RES, 17.7 µM (inactive); in the experiment on IGROV-1 it was 14.9 µM (inactive); with TK-10, 19.7 µM (inactive). Also, the GI50 with UO-31 is 17.5 µM (inactive); in the experiment with HT-29, 16.9 µM (inactive); in the experiment with BT-549, 16.1 µM (inactive); in the experiment with NCI-H23, 18.2 µM (inactive); with 786-0, 18.6 µM (inactive); in the experiment on HOP-62 it was 17.4 µM (inactive). For the same compound, in the experiment on ACHN, the GI50 is 16.7 µM (inactive).
With `CCOC(=O)C(CC(C)C)NC(=O)CSc1nnc(COc2ccc(Cl)cc2)n1-c1ccccc1` (stereo not given), the GI50 is 18.5 µM with HCT-15; 17.3 µM (inactive) in the experiment with SNB-19; 17.1 µM (inactive) in the experiment with DU-145; 22.4 µM (inactive) in the experiment on NCI-H226; 17.1 µM (inactive) in the experiment on SK-MEL-5; 27.2 µM (inactive) in the experiment with SK-OV-3. The GI50 in the experiment on OVCAR-4 is 16.2 µM (inactive); in the experiment on HOP-92 it was 18.6 µM (inactive); with NCI/ADR-RES it was 20.5 µM (inactive); in the experiment with IGROV-1 it was 15.4 µM (inactive); in the experiment with TK-10, 17.9 µM (inactive); in the experiment with UO-31 it was 1.86 µM (inactive). For the same compound, the GI50 in the experiment on HT-29 was 18.5 µM (inactive); in the experiment with BT-549 it was 17.7 µM (inactive); in the experiment on NCI-H23 it was 16 µM (inactive); in the experiment with 786-0, 15.3 µM (inactive); in the experiment with HOP-62 it was 19.4 µM (inactive); in the experiment on ACHN, 13.3 µM (inactive).
Take `CC(C)(CN1CCCCC1)C(=O)CC(SCCS(=O)(=O)O)c1ccc(Cl)cc1` (stereo not given): the GI50 with HCT-15 was 2.19 µM; in the experiment with SNB-19, 14.8 µM (inactive); in the experiment on DU-145, 9.75 µM (inactive); in the experiment on NCI-H226 it was 12 µM (inactive); in the experiment with SK-MEL-5, 7.41 µM (inactive); in the experiment on SK-OV-3, 15.5 µM (inactive). Also, the GI50 in the experiment on OVCAR-4 was 3.84 µM (inactive); in the experiment with OVCAR-8, 3.23 µM (inactive); in the experiment with HOP-92, 2.26 µM (inactive); in the experiment on NCI/ADR-RES, 5.97 µM (inactive); in the experiment on IGROV-1, 6.15 µM (inactive); with TK-10 it was 6.32 µM (inactive). In addition, the GI50 was 4.86 µM (inactive) with UO-31; 3.52 µM (inactive) with HT-29; 8.04 µM (inactive) with BT-549; 3.88 µM (inactive) with NCI-H23; 3.31 µM (inactive) in the experiment on 786-0; 11.5 µM (inactive) in the experiment on HOP-62. Also, the GI50 in the experiment on ACHN is 5.11 µM (inactive).
Consider `CCOC(=O)/C=C(/C(=O)OCC)n1ccc(=O)n(Cc2cnnn2CCCCOC(C)=O)c1=O`, for which the GI50 in the experiment with HCT-15 is above 10 µM; in the experiment with SNB-19 it was > 100 µM (inactive); in the experiment on DU-145, > 100 µM (inactive); in the experiment with NCI-H226, > 100 µM (inactive); in the experiment with SK-MEL-5, > 100 µM (inactive); in the experiment on SK-OV-3, > 100 µM (inactive). Moreover, the GI50 with OVCAR-4 was > 100 µM (inactive); in the experiment with OVCAR-8, > 100 µM (inactive); in the experiment with HOP-92, 0.0305 µM (active); in the experiment on NCI/ADR-RES, > 100 µM (inactive); in the experiment on IGROV-1, > 100 µM (inactive); with TK-10, 32.8 µM (inactive). Besides, the GI50 with UO-31 was > 100 µM (inactive); in the experiment on HT-29, > 100 µM (inactive); in the experiment with BT-549, 60.3 µM (inactive); with NCI-H23, > 100 µM (inactive); in the experiment with 786-0, 18.5 µM (inactive); in the experiment with HOP-62, > 100 µM (inactive). The GI50 in the experiment with ACHN is 51.2 µM (inactive).
For the compound `COc1ccc2cc(C(C)C(O)c3cc(F)c(F)c(F)c3F)ccc2c1` (stereo not given), the GI50 with HCT-15 is above 100 µM; with SNB-19, > 100 µM (inactive); in the experiment on DU-145, > 100 µM (inactive); with NCI-H226 it was > 100 µM (inactive); in the experiment on SK-MEL-5, > 100 µM (inactive); in the experiment with SK-OV-3, > 100 µM (inactive). The GI50 was 70.5 µM (inactive) in the experiment on OVCAR-4; 65.3 µM (inactive) in the experiment with OVCAR-8; 18.6 µM (inactive) in the experiment on HOP-92; 97.9 µM (inactive) in the experiment with NCI/ADR-RES; > 100 µM (inactive) in the experiment with IGROV-1; > 100 µM (inactive) with TK-10. Moreover, the GI50 in the experiment on UO-31 is 86.5 µM (inactive); in the experiment on HT-29, > 100 µM (inactive); in the experiment on BT-549, > 100 µM (inactive); in the experiment with NCI-H23, 49.8 µM (inactive); with 786-0, > 100 µM (inactive); in the experiment on HOP-62, 26.2 µM (inactive). Moreover, in the experiment on ACHN, the GI50 is 42.9 µM (inactive).
For the compound `COC(=O)[C@]1(c2cc3ccccc3n2S(=O)(=O)c2ccccc2)CC2CN(C(=O)OCc3ccccc3)C1C1OC(C)(C)OC21` (stereo not given in full), the GI50 with HCT-15 is above 100 µM; with DU-145 it was > 100 µM (inactive); in the experiment on NCI-H226, 93.1 µM (inactive); in the experiment on SK-MEL-5, > 100 µM (inactive); in the experiment with SK-OV-3, > 100 µM (inactive); with OVCAR-4 it was > 100 µM (inactive). Moreover, the GI50 in the experiment on OVCAR-8 is > 100 µM (inactive); in the experiment with HOP-92, 10.2 µM (inactive); in the experiment on NCI/ADR-RES, > 100 µM (inactive); in the experiment on IGROV-1, > 100 µM (inactive); in the experiment with TK-10, > 100 µM (inactive); in the experiment on UO-31, > 100 µM (inactive). The GI50 in the experiment with HT-29, with BT-549, in the experiment on NCI-H23, in the experiment with 786-0, in the experiment with HOP-62 and in the experiment with ACHN was > 100 µM (inactive) each time.
